Reference: patent US8288444B2 (Codman & Shurtleff, Inc., priority 2008, dated 2012)
Read-outs that look alike come from different tables or passages of the source.

How the values were obtained:
[1] = glycinate ester of the parent named in the row; cited from earlier work
[2] = cited from earlier work
[3] = ester prodrug vs parent estradiol
[4] = cited from earlier work; remark: listed apart in the source
[5] = carbamazepine peak brain tissue concentration by route (Barakat)
[6] = tested on: PC 12 cells, βA (25-35); test: in vitro protection of PC 12 cells against beta amyloid (25-35) insult; assay type: cell-based; conditions: for potency as neuroprotectant against beta amyloid relative to curcumin: both peptides
From the text: Park, J. Nat. Prod., 65, 9 Sep.

[7] = tested on: Pgp; conditions: freshly-plated and 72 hour-cultured hepatocytes; dose-dependent; cited from earlier work
[8] = tested on: UGT; conditions: Caco-2 cells; cited from earlier work
[9] = tested on: middle aged female Sprague-Dawley rats; conditions: 500 ppm dietary curcumin; Frautschy 2001; cited from earlier work
[10] = molecular target: amyloid beta oligomers (Homo sapiens, UniProt P05067); conditions: cited from earlier work; for prevention of toxic beta amyloid oligomer formation in vitro: Yang
Sequence of amyloid beta oligomers (P05067 672-713 limits assumed): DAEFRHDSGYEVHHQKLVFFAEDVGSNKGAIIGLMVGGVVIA

[11] = tested on: Alzheimer's Transgenic mice; conditions: 160 ppm in the diet; Lim 2001; cited from earlier work
[12] = tested on: differentiated neuroblastoma cells; conditions: Yang 2005; cited from earlier work
[13] = tested on: antigen-stimulated spleen cytotoxic T-lymphocyte proliferation; conditions: oral pretreatment with curcumin before MPA administration; mice; cited from earlier work

Molecule: 17β-estradiol
- Half-life Of glycinate ester In plasma [1]: 1 to 2 min

Molecule: CCN(CC)CCC(=O)Oc1ccc2c(c1)CC[C@@H]1[C@@H]2CC[C@]2(C)[C@@H](O)CC[C@@H]12.Cl [3-DEAPE2HCl, 3-N,N-diethylamino propionyl ester hydrochloride]
- water solubility of estradiol modified with the moiety ([2]; Al-Ghananeem): about 20 mg/ml
- increase in water solubility [3]: > 1000 fold

Molecule: NC(=O)N1c2ccccc2C=Cc2ccccc21 [Carbamazepine]
- Carbamazepine Peak Brain Tissue ([4]; Intranasal, 0.2 mg/kg): 12 µg/g
- Carbamazepine Peak Brain Tissue ([4]; Intravenous, 8.0 mg/kg): 4 µg/g
- Carbamazepine Peak Brain Tissue ([4]; Oral, 16 mg/kg): 3 µg/g
- Carbamazepine Peak Brain Tissue, ~uM ([5]; Intranasal, 0.2 mg/kg): ~48 µM
- Carbamazepine Peak Brain Tissue, ~uM ([5]; Intravenous, 8.0 mg/kg): ~16 µM
- Carbamazepine Peak Brain Tissue, ~uM ([5]; Oral, 16 mg/kg): ~12 µM

Molecule: COc1cc(/C=C/C(=O)COC(=O)/C=C/c2ccc(O)c(OC)c2)ccc1O [compound 31, 4″-(3′″-methoxy-4′″-hydroxyphenyl)-2″-oxo-3″-enebutanyl3-(3′-methoxy-4′ hydroxyphenyl) propenoate]
- potency as neuroprotectant against beta amyloid relative to curcumin ([6]; analysis of the Park data): ~5 fold

Molecule: COc1cc(C=CC(=O)CC(=O)C=Cc2ccc(O)cc2)ccc1O [compound 32, 1-(4-hydroxy-3-methoxyphenyl)-7-(4-hydroxyphenyl)-1,6-heptadiene-3,5-dione]
- potency as neuroprotectant against beta amyloid relative to curcumin ([6]; analysis of the Kim data): ~1.5 fold

Molecule: O=C(C=Cc1ccc(O)cc1)CC(=O)C=Cc1ccc(O)cc1 [compound 33, 1,7-bis(4-hydroxyphenyl)-1,6-heptadiene-3,5-dione]
- potency relative to natural curcumin in surviving toxic insult by β amyloid [6]: about twice as potent
- potency as neuroprotectant against beta amyloid relative to curcumin ([6]; analysis of the Kim data): ~2 fold

Molecule: O=C(C=Cc1ccc(O)cc1)CC(=O)CCc1ccc(O)cc1 [compound 34, 1,7-bis(4-hydroxyphenyl)-1-heptene-3,5-dione]
- potency as neuroprotectant against beta amyloid relative to curcumin ([6]; analysis of the Park data): ~10 fold

Molecule: COc1cc(/C=C/C(=O)CC(=O)/C=C/c2ccc(O)c(OC)c2)ccc1O [curcumin, (E,E)-1,7-bis(4-hydroxy-3-methoxyphenyl)-1,6-heptadiene-3,5-dione]
- Rhodamine-123 (R-123) efflux [7]: inhibited
- inhibition of UGT activity in the conjugation of 1-naphthol [8]: moderate inhibition
- reduction of amyloid beta deposits induced by beta amyloid infusion [9]: about 80%
- prevention of toxic beta amyloid oligomer formation in vitro ([10]; 0.25-4 uM curcumin): only minimally prevent
- prevention of toxic beta amyloid oligomer formation in vitro ([10]; 16-64 uM curcumin): completely prevent
- curcumin concentration that inhibits the in vitro formation of amyloid beta oligomers ([10]; in vitro, Yang 2005): 0.1 to 1.0 µM
- reduction of beta amyloid plaque burden [11]: 30-40%
- reduction of the amount of soluble beta amyloid [11]: 43%
- solubility in water [2]: insoluble in water
- solubility in water (parent compound) [2]: about 0.004 mg/ml
- curcumin concentration that blocks the in vitro toxicity of Aβ1-42 oligomers [12]: 0.1 to 1.0 µM
- increase in immunosuppression of antigen-stimulated spleen cytotoxic T-lymphocyte proliferation [13]: six-fold increase
